Results as given in US7825151B2, “Hexahydro-cyclooctyl pyrazole cannabinoid modulators” (priority 2005, dated 2010).
“And” between values parts separate entries of the source, which are not always exact repeats. Equal entries are not always repeated.

Key:
[1] = target: T1, CB2 receptor (Homo sapiens, UniProt P34972); assay: Binding assay for CB2 ([3H]-CP-55,940 displacement, SK-N-MC membranes)
T1 construct: expressed in transfected cells; host or cells: SK-N-MC cells, stably transfected with pcDNA3 CB-2 (human)
T1 sequence (P34972 whole entry): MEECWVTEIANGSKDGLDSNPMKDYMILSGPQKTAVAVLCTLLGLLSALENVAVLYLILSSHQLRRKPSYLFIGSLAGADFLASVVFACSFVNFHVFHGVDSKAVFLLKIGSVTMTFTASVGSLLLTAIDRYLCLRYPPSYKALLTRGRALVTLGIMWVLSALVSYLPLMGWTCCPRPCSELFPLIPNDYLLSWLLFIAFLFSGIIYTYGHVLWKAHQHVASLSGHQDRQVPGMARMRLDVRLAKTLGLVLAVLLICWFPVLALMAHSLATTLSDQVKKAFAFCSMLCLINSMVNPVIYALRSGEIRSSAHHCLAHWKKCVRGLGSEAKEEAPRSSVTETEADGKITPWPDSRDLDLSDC
Procedure: The human CB1 and CB2 receptors were stably expressed in SK-N-MC cells transfected with pcDNA3 CB-1 (human) or pcDNA3 CB-2 (human). The cells were grown in T-180 cell culture flasks under standard cell culture conditions at 37° C. in a 5% CO2 atmosphere. The cells were harvested by trysinization and homogenized in a homogenization buffer (10 mM Tris, 0.2 mM MgCl2, 5 mM KCl, with protease inhibitors aprotinin, leupeptin, pepstatin A and bacitracin) and centrifuged (2000 g). The supernatant was then centrifuged in 2M sucrose (31,300 g) to produce a semi-purified membrane pellet. The pellet was resuspended in homogenization and stored at −80° C.
On the day of the assay, the pellet was thawed on ice and diluted in assay buffer (50 mM Tris-HCl, 5 mM MgCl2, 2.5 mM EDTA, 0.5 mg/mL fatty acid free bovine serum albumin, pH 7.5). The diluted membrane pellet was added with buffer, either a test compound or vehicle standard and the radioligand [H]^3+-CP-55,940 (0.2 nM) to the wells of a 96-well polypropylene plate. Non-specific binding was measured in wells containing WIN 55,212 (10 uM). The plate was covered and incubated for 90 minutes at 30° C. The contents were then aspirated onto a Packard Unifilter GF/C filter bottom plate prewet with 0.5% polyethyleneimine. The wells of the polypropylene plate were rinsed and aspirated seven times with a 0.9% saline-0.5% Tween 20 solution. The Unifilter plate was dried, scintillation cocktail was added to each well and the counts representing binding were quantitated in a TopCount scintillation counter.
For compounds tested, an IC50 binding value was obtained from percent inhibition studies in which various test concentrations were used. The binding value was calculated by linear regression.
For compounds without an IC50 binding value, the percent inhibition (%) was obtained at a test concentration of ^(1)10 μM, ^(2)1 μM, ^(3)0.2 μM, ^(4)0.003 μM, ^(5) represents an average value.

[2] = target: T2, human CB1 receptor (Homo sapiens, UniProt P21554); assay: Functional cell-based CRE β-gal assay, CB1 (adenylate cyclase activity); settings: single test concentration 1 μM (footnote 2)
T2 construct: expressed in transfected cells; host or cells: SK-N-MC cells, stably transfected with pcDNA3 CB-1 (human)
T2 sequence (P21554 whole entry): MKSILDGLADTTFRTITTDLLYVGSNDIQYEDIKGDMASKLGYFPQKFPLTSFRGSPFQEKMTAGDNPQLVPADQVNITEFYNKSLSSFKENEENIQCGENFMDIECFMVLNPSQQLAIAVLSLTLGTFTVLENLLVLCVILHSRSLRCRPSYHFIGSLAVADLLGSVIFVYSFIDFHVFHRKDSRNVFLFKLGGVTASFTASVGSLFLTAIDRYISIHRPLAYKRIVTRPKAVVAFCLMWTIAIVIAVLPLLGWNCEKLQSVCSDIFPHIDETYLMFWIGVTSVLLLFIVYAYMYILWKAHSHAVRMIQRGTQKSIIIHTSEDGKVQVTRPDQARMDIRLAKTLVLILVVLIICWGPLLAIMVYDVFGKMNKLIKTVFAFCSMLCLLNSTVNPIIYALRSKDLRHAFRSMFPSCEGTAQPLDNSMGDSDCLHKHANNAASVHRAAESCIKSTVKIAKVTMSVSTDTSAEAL
Text: (§1) The CB1 and CB2 receptors are G-protein coupled receptors (GPCR), which influence cell function via the Gi-protein. These receptors modulate the activity of intracellular adenylate cyclase, which in turn produces the intracellular signal messenger cyclic-AMP (cAMP).
(§2) At baseline, or during non-ligand bound conditions, these receptors are constitutively active and tonically suppress adenylate cyclase activity. The binding of an agonist causes further receptor activation and produces additional suppression of adenylate cyclase activity. The binding of an inverse agonist inhibits the constitutive activity of the receptors and results in an increase in adenylate cyclase activity.
(§3) By monitoring intracellular adenylate cyclase activity, the ability of compounds to act as agonists or inverse agonists can be determined.
(§4) Test compounds were evaluated in SK-N-MC cells which, using standard transfection procedures, were stably transfected with human cDNA for pcDNA3-CRE β-gal and pcDNA3 CB1 receptor (human) or pcDNA3 CB2 receptor (human). By expressing CRE β-gal, the cells produced β-galactosidase in response to CRE promoter activation by cAMP. Cells expressing CRE β-gal and either the human CB1 or CB2 receptor will produce less β-galactosidase when treated with a CB1/CB2 agonist and will produce more β-galactosidase when treated with a CB1/CB2 inverse agonist.
(§5) The cells were grown in 96-well plates under standard cell culture conditions at 37° C. in a 5% CO2 atmosphere. After 3 days, the media was removed and a test compound in media (wherein the media was supplemented with 2 mM L-glutamine, […] sodium pyruvate, 0.1% low fatty acid FBS (fetal bovine serum) and antibiotics) was added to the cell. The plates were incubated for 30 minutes at 37° C. and the plate cells were then treated with forskolin over a 4-6 hour period, then washed and lysed. The β-galactosidase activity was quantitated using commercially available kit reagents (Promega Corp. Madison, Wis.) and a Vmax Plate Reader (Molecular Devices, Inc).
(§6) The change in β-galactosidase activity was determined by setting a vehicle treated cell's activity value at 100% and expressing the β-galactosidase activity measured in a corresponding compound treated cell as a percent of the vehicle treated cell activity.
The EC50 value for functional activity for compounds tested was calculated by linear regression and was obtained from studies in which varying compound concentrations were used. Data provided for certain compounds is represented by percent change (%) in functional activity at a single test concentration: ^(1)10 μM and ^(2)1 μM.

[3] = target: T1, CB2 receptor; assay: Functional cell-based CRE β-gal assay, CB2 (adenylate cyclase activity)
Text: as §1, §2, §3, §4, §5
For cells expressing CRE β-gal and the CB2 receptor, CB2 agonists reduced β-galactosidase activity in a dose-dependent manner and CB2 inverse agonists increase β-galactosidase activity in a dose-dependent manner.
as §6
The EC50 value for functional activity for compounds tested was calculated by linear regression and was obtained from studies in which varying compound concentrations were used.
The value of 29% for Compound 5 represents change in functional activity and was obtained from a study in which one compound concentration was used.

O=C(NCC12CC3CC(CC(C3)C1)C2)c1nn(C2CCCCC2)c2c1CCCCCC2 [Cpd 2, 1-cyclohexyl-4,5,6,7,8,9-hexahydro-1H-cyclooctapyrazole-3-carboxylic acid (adamantan-1-ylmethyl)-amide]
IC50 ([1]; Cannabinoid CB2 Receptor Binding IC50, radioligand CP-55,940 0.2 nM, SK-N-MC membranes): 1 nM and 6 nM and 10 nM | inhibition at 0.003 µM ([1]; read-out: CB2 receptor binding percent inhibition): 86% | CB1 receptor percent change in functional activity [2]: ^(2)−71% | EC50 [3]: 6.6 nM
